Source: PMC9411558, “Toxicity mechanisms of aflatoxin M1 assisted with molecular docking and the toxicity-limiting role of trans-resveratrol” (Scientific Reports, 2022)
Several values for one entry are separate records, joined by “and”; a condition that tells them apart may be missing. Identical values can stand only once. Like-named read-outs stand apart in the source and are kept apart here. Marks after values point to notes of the source that are not given here.

Key:
[1] = type: in vivo, Mus musculus
Protocol: In this study, 36 healthy male Mus musculus (12–14 weeks old, 25–30 g) were used as subjects and obtained from GRU-Experimental Animals Laboratory. Albino mice were maintained in stainless steel cages, at 22 ± 3 °C and 55 ± 5% relative humidity, 12 h light/12 h dark cycle. All experiments were performed in accordance with the guidelines of the Animal Experiments Local Ethics Committee of Giresun University and approved by the Animal Ethics Committee of Giresun University (protocol number: 2017/02). This study was carried out in compliance with the ARRIVE guidelines. Six groups were formed with six mice in each group.
After the mice were stunned under halothane anesthesia, their body weights were measured before the administration period and at the end of the 28-day administration period. In addition, at the end of the 28th day, the liver and kidney organs of the sacrificed mice were isolated and their weights were measured.

[2] = type: in vivo, Mus musculus; remark: listed apart in the source
Protocol: In order to interpret the changes in body weight and organ weights, the weekly feed consumption of the mice was measured. Albino mice can consume approximately 3–4 g of feed in a day[15]. In line with this information, 30 g of feed per day were put into the cages, with 5 g for each mouse in each group. Feed consumption was calculated by measuring the amount of feed remaining in the container at the end of the 7th day of each week during the 28-day application period.

[3] = Serum parameters (AST, ALT, BUN, creatinine); type: in vivo, Mus musculus
Protocol: Whole blood samples from mice stunned under halothane anesthesia were collected in vacuum tubes and centrifuged at 1200g at + 4 °C for 10 min. In serum obtained from blood, aspartate aminotransferase (AST, Teco Diagnostics, CAT. NO: A559–150), alanine aminotransferase (ALT, Teco Diagnostics, CAT. NO: A524–150), blood urea nitrogen (BUN, Teco Diagnostics, CAT. NO: B549–150) and creatinine (Teco Diagnostics) levels were measured on a Medispec 99M autoanalyzer using a commercial kit[16].

liver and kidney tissues = experiment: Antioxidant/oxidant balance: MDA and GSH levels in kidney and liver; type: in vivo, Mus musculus
Protocol: To determine the effects of AFM1 and t-rsv on antioxidant/oxidant balance, malondialdehyde and glutathione levels were measured in the kidney and liver. For this purpose, liver and kidney organs were isolated from each mouse sacrificed under halothane anesthesia and washed with a sterile solution. Liver and kidney organs were homogenized with cold 0.15 M KCl solution. Homogenates were centrifuged at 5000g and 4 °C for 1 h and MDA and GSH analyzes were performed in the supernatant.

bone marrow cells [4] = type: in vivo, Mus musculus
Protocol: (§1) The genotoxic effects of AFM1 and the genotoxicity reducing effects of t-rsv were determined by MN and CAs analyses. MN test was performed in erythrocyte, buccal mucosa epithelium and leukocyte cells. CAs analyzes were investigated in bone marrow cells. The cytotoxic effects of AFM1 and the cytotoxicity reducing effects of t-rsv were determined by MI in bone marrow cells.
CAs and MI analysis were determined in the bone marrow. For this aim, mice treated with 0.025% colchicine were sacrificed 2 h later under halothane anesthesia. Bone marrow obtained from the femurs of mice was aspirated, washed with the physiological solution and 0.075 M KCl was transferred. After fixation with Carnoy's solution, samples stained with Giemsa (5%) were examined under a microscope. […] In prepared slides, MI was determined as the percentage of dividing cells among 1000 nucleated cells for each group. Recovery effects (RE) of t-rsv against AFM1 induced genotoxicity were calculated by using Eq. (1). In determining RE, data belonging to Group VI, where t-rsv provided the highest healing effect, Group IV, in which AFM1 was treated alone, and the control group were used.1 RE%=D1-D2/D3-D2×100 D1: data of AFM1 + t-rsv treated group, D2: Data of AFM1 treated group, D3: data of control.

bone marrow cells [5] = type: in vivo, Mus musculus; remark: listed apart in the source
Protocol: as §1
CAs and MI analysis were determined in the bone marrow. For this aim, mice treated with 0.025% colchicine were sacrificed 2 h later under halothane anesthesia. Bone marrow obtained from the femurs of mice was aspirated, washed with the physiological solution and 0.075 M KCl was transferred. After fixation with Carnoy's solution, samples stained with Giemsa (5%) were examined under a microscope. MI rates and CAs frequencies were determined in the prepared slides and 1.000 cells were analyzed for each group. In prepared slides, MI was determined as the percentage of dividing cells among 1000 nucleated cells for each group. Recovery effects (RE) of t-rsv against AFM1 induced genotoxicity were calculated by using Eq. (1). In determining RE, data belonging to Group VI, where t-rsv provided the highest healing effect, Group IV, in which AFM1 was treated alone, and the control group were used.1 RE%=D1-D2/D3-D2×100 D1: data of AFM1 + t-rsv treated group, D2: Data of AFM1 treated group, D3: data of control.

leukocyte cell nuclei = type: in vivo, swiss albino mice
Protocol: The protocol of Tice et al.[19] was performed for alkaline single cell gel electrophoresis with slight modifications. Slides were dipped in 1% normal melting point agarose for coating and allowed to dry at 37 °C. 10 µL of peripheral blood were added to 120 µL of 0.5% low-melting-point agarose at 37 °C, layered onto a coated slide, covered with a coverslip and left at 4 °C for 5 min. to solidify the agarose. The coverslip was removed and the slides were immersed into a lysis solution (2.5 M NaCl, 100 mm Na2EDTA, 10 mM Tris–HCl buffer, pH 10, 1% Triton X-100) for approximately 1 h. After lysis, the slides were transferred to a horizontal gel electrophoresis tank with a fresh and cooled alkaline buffer. After a 20 min. DNA unwinding period, electrophoresed at 0.86 V/cm (20 V, 300 mA) for 20 min. […] To prevent DNA damage, all steps were performed in low light and analyzed by fluorescence microscopy. Comets were analyzed with Comet Assay software version 1.2.3b[20] with the parameters of tail DNA length. A total of 600 cells were analyzed for each group, 100 in each animal for DNA damage. The extent of DNA damage was scored from 0 to 4 depending upon the level of DNA damage. […] The total DNA damage per group, expressed as arbitrary units, was calculated using Eq. (2).2 Arbitraryunit=∑i=04Nixi (i: degree of damage (0, 1, 2, 3, 4), Ni: the number of cells in i degree).

[6] = test system: buccal mucosa epithelial cells; experiment: MN test in buccal mucosa epithelial cells; type: in vivo, Mus musculus; details: 20 mg/kg t-rsv against 16 mg/kg AFM1
Protocol: as §1
For the MN test in the buccal mucosa epithelial cells, the mouths of the mice stunned with halothane anesthesia were rinsed with distilled water, and epithelial cells were taken from the left and right buccal mucosa and spread on the slide. Preparations fixed in methanol: acetic acid solution were stained with Fast Green and Feulgen then examined with a research microscope. For the MN test in erythrocytes, blood samples (5 µL) from the tail veins of mice stunned with halothane anesthesia were mixed with EDTA (3%) solution and spread on sterile slides. The preparations were fixed in ethanol (70%) for 2 min. were left to dry at 21 °C for 24 h. Slides were stained with Giemsa (5%) for 15 min. and analyzed under a microscope. For the leukocyte MN test, blood samples were obtained from each mouse and centrifuged at 5000 rpm for 10 min. 5 mL of 0.075 M KCl solution was transferred to the pellet. […]

albino mice = details: 10 mg/kg and 20 mg/kg doses
[7] = rabbit, in vivo; cited from earlier work
[8] = in vivo; cited from earlier work
[9] = Group II: 10 mg/kg b.w. t-rsv, 28 days
[10] = Group III: 20 mg/kg b.w. t-rsv, 28 days
[11] = Group II: 10 mg/kg b.w. t-rsv, 600 cells analyzed
[12] = Group III: 20 mg/kg b.w. t-rsv, 600 cells analyzed

COc1cc2c(c3oc(=O)c4c(c13)CCC4=O)C1(O)C=COC1O2 (centres unmarked) [AFM1, Aflatoxin M1]
decrease in kidney weight compared to the control group ([1]; mouse, in vivo): 51.3%
decrease in liver weight compared to the control group ([1]; mouse, in vivo): 43.1%
Organ weight, kidney ([1]; mouse, in vivo, iv, 16 mg/kg): 0.74 ± 0.15^d
Organ weight, liver ([1]; mouse, in vivo, iv, 16 mg/kg): 1.50 ± 0.24^d
Feed consumption, 7th day ([2]; mouse, in vivo, iv, 16 mg/kg): 148.6
Feed consumption, 14th day ([2]; mouse, in vivo, iv, 16 mg/kg): 147.1
Feed consumption, 21st day ([2]; mouse, in vivo, iv, 16 mg/kg): 131.1
Feed consumption, 28th day ([2]; mouse, in vivo, iv, 16 mg/kg): 119.8
increase in ALT level compared to the control group ([3]; mouse, in vivo, iv, 16 mg/kg): 35.8%
increase in AST level compared to the control group ([3]; mouse, in vivo, iv, 16 mg/kg): 33.6%
increase in BUN level compared to the control group ([3]; mouse, in vivo, iv, 16 mg/kg): 43.6%
increase in creatinine level compared to the control group ([3]; mouse, in vivo, iv, 16 mg/kg): 58.4%
decrease of kidney GSH level compared to the control group (liver and kidney tissues; mouse, in vivo): 39.3%
decrease of liver GSH level compared to the control group (liver and kidney tissues; mouse, in vivo): 63.7%
increase of kidney MDA level compared to the control group (liver and kidney tissues; mouse, in vivo): 1.41 times
increase of liver MDA level compared to the control group (liver and kidney tissues; mouse, in vivo): 1.22 times
CAs frequency, Acentric (bone marrow cells [4]; mouse, in vivo, iv, 16 mg/kg): 12.70 ± 0.94^a
CAs frequency, Break (bone marrow cells [4]; mouse, in vivo, iv, 16 mg/kg): 60.20 ± 4.38^a
CAs frequency, Dicentric (bone marrow cells [4]; mouse, in vivo, iv, 16 mg/kg): 8.20 ± 0.84^a
CAs frequency, Fragment (bone marrow cells [4]; mouse, in vivo, iv, 16 mg/kg): 31.80 ± 3.12^a
CAs frequency, Gap (bone marrow cells [4]; mouse, in vivo, iv, 16 mg/kg): 20.80 ± 2.65^a
CAs frequency, Ring (bone marrow cells [4]; mouse, in vivo, iv, 16 mg/kg): 48.40 ± 4.15^a
decrease in MI rate compared to the control group (bone marrow cells [5]; mouse, in vivo): 32.5%
average DNA damage score (leukocyte cell nuclei; mouse, in vivo, iv, 16 mg/kg): 255.67 ± 16.57
decrease in body weight compared to the control group (mouse, in vivo): 17.5%
FBW: Final body weight (mouse, in vivo, iv, 16 mg/kg): 41.38 ± 1.98 g
TWG: Total weight gain (mouse, in vivo, iv, 16 mg/kg): 3.5 g and 3.50^d g

Oc1ccc(/C=C/c2cc(O)cc(O)c2)cc1 [t-rsv, trans-resveratrol]
Organ weight, kidney [1, 9]: 1.55 ± 0.30^a
Organ weight, liver [1, 9]: 2.62 ± 0.34^a
Organ weight, kidney [1, 10]: 1.53 ± 0.26^a
Organ weight, liver [1, 10]: 2.65 ± 0.42^a
Feed consumption, 7th day ([2]; Group II: 10 mg/kg b.w. t-rsv): 151.9
Feed consumption, 14th day ([2]; Group II: 10 mg/kg b.w. t-rsv): 152.7
Feed consumption, 21st day ([2]; Group II: 10 mg/kg b.w. t-rsv): 155.7
Feed consumption, 28th day ([2]; Group II: 10 mg/kg b.w. t-rsv): 153.2
Feed consumption, 7th day ([2]; Group III: 20 mg/kg b.w. t-rsv): 157.6
Feed consumption, 14th day ([2]; Group III: 20 mg/kg b.w. t-rsv): 153.2
Feed consumption, 21st day ([2]; Group III: 20 mg/kg b.w. t-rsv): 155.6
Feed consumption, 28th day ([2]; Group III: 20 mg/kg b.w. t-rsv): 151.9
protection against abnormalities in serum parameters ([3]; 20 mg/kg t-rsv against AFM1): 45.69–60.3%
decrease in MDA level (liver and kidney tissues; t-rsv with AFM1, liver and kidney, dose not stated): 16%
RE, MN Buccosal [6]: 48.9%
reduction in CA types (bone marrow cells [4]; 10 mg/kg and 20 mg/kg t-rsv treatment with AFM1): 22.6–63.9%
reduction of gap formation (bone marrow cells [4]; 20 mg/kg t-rsv with AFM1): 63.9%
CAs frequency, Acentric (bone marrow cells [4]; [11]): 0.00 ± 0.00^d
CAs frequency, Break (bone marrow cells [4]; [11]): 0.00 ± 0.00^d
CAs frequency, Dicentric (bone marrow cells [4]; [11]): 0.00 ± 0.00^d
CAs frequency, Fragment (bone marrow cells [4]; [11]): 0.00 ± 0.00^d
CAs frequency, Gap (bone marrow cells [4]; [11]): 0.00 ± 0.00^d
CAs frequency, Acentric (bone marrow cells [4]; [12]): 0.00 ± 0.00^d
CAs frequency, Break (bone marrow cells [4]; [12]): 0.00 ± 0.00^d
CAs frequency, Dicentric (bone marrow cells [4]; [12]): 0.00 ± 0.00^d
CAs frequency, Fragment (bone marrow cells [4]; [12]): 0.00 ± 0.00^d
CAs frequency, Gap (bone marrow cells [4]; [12]): 0.00 ± 0.00^d
RE, MI Rate (bone marrow cells [5]; 20 mg/kg t-rsv against 16 mg/kg AFM1): 80.7%
MI levels (bone marrow cells [5]; control group, 10 mg/kg, 20 mg/kg t-rsv-treated groups): 13.9–14.3%
DNA damage by t-rsv application alone (leukocyte cell nuclei; Group II and III vs control, p > 0.05): did not induce DNA damage
FBW: Final body weight [9]: 49.91 ± 2.10 g
TWG: Total weight gain [9]: 11.96^a g
FBW: Final body weight [10]: 50.66 ± 2.18 g
TWG: Total weight gain [10]: 12.40^a g
toxic effect of resveratrol alone (albino mice): did not have a toxic effect

Aflatoxin G2 [AFG2]
body weight loss compared to the control group [7]: approximately 539 g

Aflatoxin B1 [AFB1]
reduction of weight gain compared to control [8]: 33.94%
body weight loss compared to the control group [7]: approximately 539 g
